Measurements reported in US9468624B2, “Small molecule antagonists of bacterial quorum-sensing receptors” (priority 2008, dated 2016).
Read-outs that look alike come from different tables or passages of the source.

How the values were obtained:
[1] = test system: CviR-dependent violacein production; assay: Violacein production in wild type C. violaceum, dose-response; type: cell-based; conditions: Chromobacterium violaceum, read-out: IC50 for inhibition of violacein production
Protocol: (§1) E. coli strains were grown overnight in LB medium with antibiotics at 37° C. and sub-cultured into fresh medium at a 1:100 dilution. Various AHL and antagonists were added at constant concentrations or titrated as stated. The gfp was measured on an Envision plate reader after 5 hours of growth at 37° C. C. violaceum strains were grown aerobically in 1 mL Nutrient Broth plus 1 mM tryptophan at 30° C. […] Cells were collected via centrifugation at 13000 rpm for 15 minutes. Pellets were resuspended in 1 mL of methanol and incubated at 42° C. for 1 hour. Samples were again collected via centrifugation at 13000 rpm for 5 minutes and analyzed for violacein by measuring optical density at 568 nm on a Beckman Coulter DU-800 spectrophotometer. For the dose-response analyses, all assays were performed in triplicate.
To determine if 4606-4237 inhibits violacein production specifically by interfering with CviR, 4606-4237 was tested for antagonism of CviR in the recombinant E. coli vioA-gfp assay. For these experiments, C6-HSL was held constant at 500 nM, while 4606-4237 was titrated from 1.3 nM to 100 μM (FIG. 3D). This concentration of native C6-HSL signal induces maximal gfp production in this heterologous assay system. Importantly, no C. violaceum components other than CviR are present in the recombinant E. coli assay strain. Thus, any inhibition occurring would be due to a specific interaction between the antagonist molecule 4606-4237 and CviR rather than an interaction of 4606-4237 with some unknown component required for violacein production in C. violaceum. […] Thus, 4606-4237 functions by disabling CviR-mediated activation of gene expression in both the C. violaceum in vivo violacein assay and the recombinant E. coli vioA-gfp assay.

CviR [2] = target: T1, CviR (Chromobacterium violaceum, UniProt D3W065); conditions: CviR expressed in E. coli, whole cell vs soluble extract, ligand 50 μM
Protocol: (§2) CviR Overexpression and Purification. CviR was overexpressed in BL21(DE3) pLysS by growing an overnight culture in LB supplemented with 100 μg/mL ampicillin and 10 μg/mL chloramphenicol. The culture was diluted 1:50 into fresh LB supplemented with 100 μg/mL ampicillin and 10 μg/mL chloramphenicol and grown shaking at 37° C. to an OD600 of 0.4. Various AHL or antagonist molecules were added to at 50 μM and incubated an additional 30 minutes at 30° C., after which expression was induced by the addition of 100 μM IPTG (isopropyl-β-D-thiogalactopyranoside) for 4 hours at 30° C. Cells were harvested by centrifugation and lysed in 20 mM imidazole pH 8.0, 100 mM NaCl, 0.5 mM EDTA and 5% glycerol via a Micro-fluidizer processor (MicroFluidics). Protein was purified via ion-exchange using a Hitrap Heparin HP column (GE Healthcare). Protein was eluted with a 100 mM to 1 M NaCl gradient. Fractions containing CviR were pooled and diluted in lysis buffer devoid of NaCl, and then further purified by cation exchange chromatography using a Hitrap SP HP column (GE Healthcare). CviR was eluted with a 100 mM to 1 M NaCl gradient.
The solubility characteristics of CviR were analyzed in the presence of the various molecules under study. […] As controls, the protein was also expressed in the absence of any AHL or antagonist. In each case, whole cell and soluble fractions of cell lysates were analyzed by SDS-PAGE to assess whether the CviR protein in question had been stabilized.

CviR [3] = target: T1, CviR; assay: cell-based; type: cell-based; set-up: made in house; host or cells: E. coli BL21(DE3) pLysS, plasmid pET23b
Protocol: The vioA-gfp promoter fusion was constructed by amplifying the vioA promoter and cloning this region upstream of gfp in pEVS141 at the SphI and SalI sites. Cells containing the vioA-gfp construct were electroporated with the pET23 carrying cviR and selected on LB medium supplemented with 75 μg/mL ampicillin and 50 μg/mL kanamycin. The E. coli strain containing cviR and the vio:gfp reporter is named ELS1257.
as §1
However, binding of the longer acyl-tail length AHL molecules disrupts the transcriptional activation ability of CviR.
To determine if 4606-4237 inhibits violacein production specifically by interfering with CviR, 4606-4237 was tested for antagonism of CviR in the recombinant E. coli vioA-gfp assay. For these experiments, C6-HSL was held constant at 500 nM, while 4606-4237 was titrated from 1.3 nM to 100 μM (FIG. 3D). […] Importantly, no C. violaceum components other than CviR are present in the recombinant E. coli assay strain. Thus, any inhibition occurring would be due to a specific interaction between the antagonist molecule 4606-4237 and CviR rather than an interaction of 4606-4237 with some unknown component required for violacein production in C. violaceum.

CviR [4] = target: T1, CviR; type: binding; set-up: made in house; host or cells: E. coli BL21(DE3) pLysS, plasmid pET23b; conditions: for DNA binding of ligand-loaded CviR to vioA promoter: CviR 100-500 nM
Protocol: as §2
DNA probes for gel mobility shift analyses were generated by standard polymerase chain reaction using primers with a 5′ 6-FAM (fluorescein) tag (Integrated DNA Technologies). The target probe contained about 100 nucleotides of the vioA promoter. The control probe contained 300 bases of vioB intergenic DNA. 37 ng of each probe was incubated for 20 minutes at room temperature with the indicated amounts of CviR (0, 0.1, 0.2, 0.3, 0.4 and 0.5 μM) and 1 μg/μL poly-dIdC in 1× Gel shift buffer (40 mM Tris HCl pH 8.0, 100 mM KCL, 2 mM EDTA, 2 mM DTT, 10% glycerol, 200 μg/mL BSA). Gel mobility shifts were performed on 6% TGE-polyacrylamide gels and visualized using a Storm 860 Imaging System (Molecular Dynamics).
To further investigate the mechanism underlying antagonism of the CviR receptor, an examination was undertaken of whether the soluble CviR antagonist complexes were incapable of binding DNA, and thus unable to activate transcription. […] The CviR protein was also purified in complex with each of the synthetic antagonist molecules, 4606-4237, CTL, and CL. Performance of DNA gel mobility shift analyses enabled assessment of the binding of each of these purified, loaded protein complexes to the vioA promoter.
The reciprocal experiment tested whether C6-HSL could replace CL bound to CviR.

T1 sequence (D3W065 1-265): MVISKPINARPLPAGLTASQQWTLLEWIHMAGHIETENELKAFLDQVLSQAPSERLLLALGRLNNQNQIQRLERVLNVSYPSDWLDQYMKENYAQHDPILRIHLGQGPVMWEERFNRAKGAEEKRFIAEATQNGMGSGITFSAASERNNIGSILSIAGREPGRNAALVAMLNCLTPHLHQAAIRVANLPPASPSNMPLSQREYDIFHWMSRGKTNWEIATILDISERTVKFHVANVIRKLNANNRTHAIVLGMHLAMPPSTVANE

Structure (SMILES) | IC50 [1] | CviR folding and solubility in presence of ligand (CviR [2]) | IC50 (CviR [3]; constant 500 nM C6-HSL, read-out: IC50 for inhibition of vioA-gfp expression) | ligand exchange on loaded CviR, effect on DNA binding (CviR [4]; 500 nM loaded CviR, competing ligand 0-10 μM) | DNA binding of ligand-loaded CviR to vioA promoter (CviR [4]) | IC50 (CviR [3])
O=C(CCCOc1ccc(Cl)cc1)NC1CCOC1=O (stereo not drawn) [CL, chlorolactone] | 295 nM | promoted CviR31532 folding and solubility | 377 nM | DNA binding decreased in a dose dependent manner | no ability to bind DNA | 
O=C(CCCOc1ccc(Cl)cc1)NC1CCSC1=O (stereo not drawn) [CTL, Chloro-thiolactone] | 723 nM | promoted CviR31532 folding and solubility |  |  | no ability to bind DNA | 1100 nM
